Source: patent US5444161A, “Substrates for β-galactosidase” (Microgenics Corporation, priority 1989, dated 1995)
Values after ≈ are worked out from the molar mass of the structure shown.

How the values were obtained:
β-galactosidase [1] = molecular target: β-galactosidase (Escherichia coli, UniProt P00722); assay: Kinetic properties of substrates with β-galactosidase; type: biochemical; settings: for Vm Ratio to ONPG: relative to ONPG; for Km: four or five substrate concentrations
Method: (§1) The ability of the subject compounds to act as substrates for β-galactosidase and ED28-digoxigenin+EA was measured and compared with the results obtained with ONPG. ED28-digoxigenin+EA are a β-galactosidase α fragment-digoxigenin conjugate and the α complementation acceptor, respectively. ED28-digoxigenin consists of β-galactosidase amino acids 1-46, with cysteines at positions 1 and 46, and digoxgenin conjugated to the cysteines. Assays involving ED and EA are described in greater detail in U.S. Pat. No. 4,708,929. E28-digoxigenin and EA are usually components of a CEDIA™ assay; however, in this set of experiments, antibodies are not present. Four or five substrate concentrations were used to obtain the results. The turnover figures are given for EA+ED28-digoxigenin, not β-galactosidase.

β-galactosidase [2] = assay: CEDIA digoxin assay with new substrates; type: biochemical; settings: relative to OCNPG, [Substrate]/Km 4.0x; for % Open: absence of antibody; for % Inhib: inhibitory antibody; for High calib % Mod / High calib % Net: saturating analyte
From the text: (§2) β-galactosidase-analyte conjugates may be used in a variety of diagnostic assays. The subject compounds may be used in conjunction with these assays. Such assays may be used to determine the presence and/or concentration of various compounds, including specific proteins, carbohydrates, and polynucleotides. The assays may be heterogenous, including ELISA assays. In particular the subject compounds may be employed in CEDIA™ assays. CEDIA™ assays measure the amount of an analyte by means of the ability of the analyte to affect the observed enzyme activity when employing an anti-analyte antibody binding reaction to a β-galactosidase α complementing fragment conjugated to analyte or cross reactive compound. In the absence of free analyte, the observed β-galactosidase activity is lower. Thus in CEDIA™ assays β-galactosidase activity increases as the amount of analyte increases. CEDIA™ assays make use of the α complementation phenomenon between ED and EA as described in detail in U.S. Pat. No. 4,708,929.
(§3) The ability of the new substrates to function in CEDIA™ assays was tested. All values are relative to reaction rates using OCNPG (o-chloro-nitrophenyl-β-D-galactopyranoside). […] CEDIA™ assays for T3 (the thyroid hormone, triiodothyronine), digoxin, and folate were performed.
(§4) The terms in table 3 are defined as follows. [Substrate]/Km is the ratio of the concentation of substrate used in the assay to the Km of the enzyme for that substrate. The %open, %inhibition, %mod, and %net figures are all given relative to the results obtained with OCNPG.
(§5) %Open is the reaction rate in the absence of antibody. The figure given in table 3 is the reaction rate relative to the reaction rate obtained with OCNPG.
(§6) %Inhibition is defined as the difference between the reaction rate rate in the absence of antibody and the reaction rate in the presence of the inhibitory antibody found in the CEDIA™ assays, divided by the reaction rate in the absence of antibody. The figures given in table 3 are relative to the % inhibition figure obtained with OCNPG as substrate.
(§7) %Net is defined as the difference between the reaction rate of a CEDIA™ assay using the test substrate in the absence of analyte and presence of antibody and the same reaction in the presence of a saturating amount of analyte (i.e. maximum attainable reaction rate) and presence of antibody, divided by the difference between the reaction rate using OCNPG in the absence of analyte and presence of antibody, and the reaction rate with OCNPG using a saturating amount of analyte and presence of antibody.
(§8) %Mod is defined as the difference between the reaction rate of a CEDIA™ assay in the absence of analyte and presence of antibody and the same reaction in the presence of a saturating amount of analyte (i.e., maximum attainable reaction rate) and presence of antibody, divided by the same figure obtained for the reaction rate in the presence of a saturating amount analyte. The greater the %mod, the greater the range of analyte concentrations over which the assay will be effective. The figure given in Table 3 is the mod figure obtained for the new subtrate, divided by the %mod figure divided %mod figure obtained for OCNPG.

β-galactosidase [3] = assay: CEDIA T3 assay with new substrates; type: biochemical; settings: for % Open / % Inhib / High calib % Mod / High calib % Net: T3 assay, relative to OCNPG, [Substrate]/Km: DNPG 3.3x, m-CN-NPG 4.1x, NGPG 2.0x; for % Open: absence of antibody; for % Inhib: inhibitory antibody; for High calib % Mod / High calib % Net: saturating analyte
From the text: as §2, §3, §4, §5, §6, §7, §8

EA + ED28-digoxigenin = assay: Kinetic properties of substrates with EA + ED28-digoxigenin; type: biochemical; settings: for Km / Vm Ratio to ONPG: no antibodies; for Km: four or five substrate concentrations; for Vm Ratio to ONPG / Turnover % ONPG: relative to ONPG
Method: as §1

[4] = Absorbance wavelength maximum and molar extinction coefficient of substrate and reaction product; type: physicochemical; settings: for Product λmax / Product ε: reaction product; for Product ε / Substrate ε: molar extinction coefficient
From the text: (§9) Table 1 gives the absorbance wavelength maximum (λmax) for the substrate and the reaction product, the molar extinction coefficient ε for the substrate and the reaction product, the solubility, and the spontaneous hydrolysis rate of the new substrates (stability). ONPG, the standard β-galactosidase substrate, is listed for comparision.

Solubility of substrates = type: physicochemical
From the text: as §9

β-galactosidase [5] = assay: CEDIA folate assay with new substrates; type: biochemical; settings: relative to OCNPG, [Substrate]/Km: DNPG 3.2x, m-CN-NPG 2.5x, NGPG 3.2x; for % Open: absence of antibody; for % Inhib: inhibitory antibody; for High calib % Mod / High calib % Net: saturating analyte
From the text: as §2, §3, §4, §5, §6, §7, §8

[6] = Spontaneous hydrolysis rate of substrates (stability); type: physicochemical; settings: room temperature; normalized to 10 μg/ml starting concentration of substrate
Method: as §9
*Hydrolysis is measured at room temperature. Results are normalized to 10
μg/ml starting concentration of substrate.

β-galactosidase [7] = assay: CEDIA assays (T3, digoxin and folate), overall; type: biochemical
From the text: as §2, §3
The terms in table 3 are defined as follows. […]

Sequence of β-galactosidase (Escherichia coli, UniProt P00722) (P00722 2-1024): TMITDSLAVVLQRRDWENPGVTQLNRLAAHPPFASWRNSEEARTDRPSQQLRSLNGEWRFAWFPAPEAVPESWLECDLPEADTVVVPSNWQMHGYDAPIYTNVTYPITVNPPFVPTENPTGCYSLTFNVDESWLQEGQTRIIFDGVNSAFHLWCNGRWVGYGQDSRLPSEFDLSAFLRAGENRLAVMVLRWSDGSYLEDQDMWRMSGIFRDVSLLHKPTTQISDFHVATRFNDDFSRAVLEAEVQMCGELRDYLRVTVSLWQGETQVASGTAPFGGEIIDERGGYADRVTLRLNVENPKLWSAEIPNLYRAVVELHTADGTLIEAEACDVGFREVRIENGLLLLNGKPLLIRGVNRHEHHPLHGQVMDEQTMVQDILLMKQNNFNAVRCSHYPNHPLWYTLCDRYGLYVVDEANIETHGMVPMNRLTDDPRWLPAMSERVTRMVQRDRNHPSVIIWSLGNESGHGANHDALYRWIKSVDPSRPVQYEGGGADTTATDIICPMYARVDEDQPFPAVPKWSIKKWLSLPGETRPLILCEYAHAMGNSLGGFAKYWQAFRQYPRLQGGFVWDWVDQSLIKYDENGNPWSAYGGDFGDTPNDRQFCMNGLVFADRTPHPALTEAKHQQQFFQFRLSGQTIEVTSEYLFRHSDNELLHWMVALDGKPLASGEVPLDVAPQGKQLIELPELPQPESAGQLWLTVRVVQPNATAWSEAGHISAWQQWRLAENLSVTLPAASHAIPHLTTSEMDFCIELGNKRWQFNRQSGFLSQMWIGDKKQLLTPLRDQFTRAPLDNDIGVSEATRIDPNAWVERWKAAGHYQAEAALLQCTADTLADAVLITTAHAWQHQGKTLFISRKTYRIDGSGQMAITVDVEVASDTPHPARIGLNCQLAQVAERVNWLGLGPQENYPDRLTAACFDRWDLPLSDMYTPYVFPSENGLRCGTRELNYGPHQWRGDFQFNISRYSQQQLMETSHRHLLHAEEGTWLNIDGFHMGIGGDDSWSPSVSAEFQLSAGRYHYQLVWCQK

Row | SMILES | Vm Ratio to ONPG (β-galactosidase [1]) | % Open (β-galactosidase [2]) [%] | % Inhib (β-galactosidase [2]) [%] | High calib % Mod (β-galactosidase [2]) [%] | High calib % Net (β-galactosidase [2]) [%] | % Open (β-galactosidase [3]) [%] | % Inhib (β-galactosidase [3]) [%] | High calib % Mod (β-galactosidase [3]) [%] | High calib % Net (β-galactosidase [3]) [%] | Km (EA + ED28-digoxigenin) [mg/mL] | Vm Ratio to ONPG (EA + ED28-digoxigenin) | Turnover % ONPG (EA + ED28-digoxigenin) [%] | Product λmax [4] [nm] | Product ε [4] [OD/M] | Substrate λmax [4] [nm] | Substrate ε [4] [OD/M] | Solubility (Solubility of substrates) [mg/mL] | % Open (β-galactosidase [5]) [%] | % Inhib (β-galactosidase [5]) [%] | Hydrolysis [6] [mA/Day] | further results
1 | O=[N+]([O-])c1ccc(O[C@@H]2O[C@H](CO)[C@H](O)[C@H](O)[C@H]2O)cc1[N+](=O)[O-] [3,4 DNPG, 3,4-Dinitrophenyl-β-D-galactopyranoside] | 3.5 | 92 | 74 | 85 | 72 | 73 | 93 | 88 | 71 | 0.19 | 2.8 | 70 | 400 | 12400 | 280 | 6000 | 3.0 (≈ 8.66 mM) | 72 | 77 | 6 | High calib % Mod (β-galactosidase [5]): 76%; High calib % Net (β-galactosidase [5]): 58%
2 | COc1cc([N+](=O)[O-])ccc1O[C@@H]1O[C@H](CO)[C@H](O)[C@H](O)[C@H]1O [NGPG, o-Methoxy-p-nitrophenyl-β-D-galactopyranoside] | 3.7 | 81 | 98 | 85 | 72 | 41 | 87 | 82 | 37 | 0.28 | 3.6 | 56 | 430 | 17600 | 298 | 7400 | 1.0 (≈ 3.02 mM) | 85 | 104 | 1 | affinity compared with ONPG (in words) (β-galactosidase [1]): somewhat lower affinity than ONPG; affinity compared with ONPG (in words) (EA + ED28-digoxigenin): somewhat lower affinity than ONPG; High calib % Mod (β-galactosidase [5]): 102%; High calib % Net (β-galactosidase [5]): 84%
3 | O=Cc1cc([N+](=O)[O-])ccc1O[C@@H]1O[C@H](CO)[C@H](O)[C@H](O)[C@H]1O [NSPG] | 3.2 | – | – | – | – | – | – | – | – | 0.14 | 3.0 | 54 | 382 | 16500 | 298 | 14900 | < 40.0 | – | – | 19 | Km (β-galactosidase [1]): 334 µM; solubility (in words) (Solubility of substrates): high aqueous solubility
4 | O=[N+]([O-])c1ccccc1O[C@@H]1O[C@H](CO)[C@H](O)[C@H](O)[C@H]1O [ONPG, o-nitrophenyl-β-D-galactopyranoside, reference compound] | 1.0 | – | – | – | – | – | – | – | – | 0.15 | 1.0 | 100 | 414 | 3000 | 315 | 2000 | 10.0 (≈ 33.2 mM) | – | – | 0.4 | Km (β-galactosidase [1]): 266 µM; signal in CEDIA assays (in words) (β-galactosidase [7]): exceptionally weak signal
5 | N#Cc1cc(O[C@@H]2O[C@H](CO)[C@H](O)[C@H](O)[C@H]2O)ccc1[N+](=O)[O-] [m-CN-NPG, m-Cyano-p-nitrophenyl-β-D-galactopyranoside] | 3.0 | 82 | 91 | 85 | 71 | 71 | 100 | 100 | 63 | 0.14 | 2.4 | 44 | 405 | 17000 | 308 | 9200 | < 8.0 | 62 | 93 | 5 | T3 assay results on increasing substrate concentration (in words) (β-galactosidase [3]; substrate increased from 2.7×Km to 4.1×Km): improved; High calib % Mod (β-galactosidase [5]): 103%; High calib % Net (β-galactosidase [5]): 72%
